According to patent publication US9949489B2, “Methods for control of hemipteran insect stylet sheath structure formation” (The United States of America, as Represented by the …, priority 2015, dated 2018):

How the values were obtained:
D. citri [1] = experiment: Liquid ACP diet sandwich feeding assay (MFC): inhibition of de novo stylet sheath formation; assay type: in vivo, Diaphorina citri; design: key: −: No effect apparent inhibition of stylet sheath; +/−: inconclusive inhibition; +: apparent slight inhibition effect; ++: increased apparent inhibition effect; +++: high inhibition effect; ++++: very high inhibition effect; +++++: complete inhibition of sheath synthesis; conditions: small molecule in liquid ACP diet, about 24 h, concentration, pH, 25° C. per Table 3
Description: (§1) The next step was to determine if addition of cellulase to the diet of D. citri would interfere with stylet sheath formation. A D. citri diet is prepared as described by Hall, David et al., “Research toward an artificial diet for adult Asian citrus psyllid,” Annals of the Entomological Society of America 103.4:611-617 (2010). Approximately 25 D. citri were collected into polystyrene Cellstar 35 mm×10 mm dishes (Griener Bio-One, Monroe, N.C.) that were then sealed using a single layer of Parafilm® M (Pechiney Plastic Packaging Company, Chicago, Ill.). Approximately 99 μl of liquid ACP diet (e.g., diet lacking the solidifying agar component, see Hall, et. al., 2010, supra) was mixed with approximately 1 μl of cellulase (Sigma Aldrich, St. Louis, Mo.) and mixed. […] layer Parafilm® M surface, which was then covered with another layer of Parafilm® M to form a sandwich (e.g., Parafilm® M—liquid ACP diet with cellulase—Parafilm® M) to allow ACP to feed into the liquid ACP diet containing cellulase. This MFC was then incubated at about 25° C., at about 75% relative humidity, with a light:dark cycle of approximately 14:10 hours for a period of about 24 hours. After about 24 hours, the stylet sheaths were observed using an inverted microscope. FIGS. 3G through 3I are images of three separate locations where D. citri made attempts to feed into the liquid ACP diet containing approximately 1 unit/μl cellulase.
(§2) Because many biomolecule polymerizing enzymes require divalent cations as cofactors, the effect of ethylenediaminetetraacetic acid (EDTA), a chelator of divalent cations, on ACP SS formation was tested by adding EDTA to the previously described liquid ACP diet (see Hall et al., 2010, supra). The EDTA was added to the liquid ACP diet at a concentration of approximately 2 mM EDTA in diH2O. Approximately 200 D. citri were placed in plastic Petri dishes. The dishes were covered with a single layer of Parafilm® M to form MFC. […] The MFC plates were incubated at a temperature of about 25° C., a relative humidity of about 75%, and a light/dark cycle of about 14:10 hours duration. Following the 24-hour incubation, the fluid (either liquid ACP diet containing EDTA or just the liquid ACP diet) between the two sheets of plastic was harvested by using a sterile 5 ml syringe and 20-gauge needle which was pushed into the center of the Parafilm® M-fluid-Parafilm® M sandwich, and the fluid was then removed by syringe plunger suction. The harvested fluids were put into sterile 50 ml conical vials, placed at about −80° C. until frozen. Each vial of harvested fluid was then lypholyzed overnight. The lyophilized product was then solubilized in […], placed at about −80° C. until frozen, then each new vial was lyopholyzed overnight. The lyophilized product was then solubilized in approximately 15 μL of approximately 1× Laemmili buffer (Bio-Rad, Hercules, Calif.) containing approximately 5% 2-mercaptoethanol. The sample was loaded onto a sodium dodecyl sulfate polyacrylamide gel (SDS-PAGE) and underwent electrophoresis. The SDS PAGE gel was then stained with coomassie. Uncommon bands between the liquid ACP diet containing EDTA and liquid ACP diet without EDTA (negative control) lanes were cut out and analyzed by Orbitrap (Thermo Scientific, Waltham, Mass.) protein analysis, according to manufacturer's protocol.
(§3) After about 24-hour incubation, D. citri feeding sites were observed. […] See also Table 2 and Table 3, infra.

[2] = test system: Bemisia tabaci biotype B whitefly; experiment: Liquid ACP diet sandwich feeding assay: stylet sheath formation by whitefly; assay type: in vivo; design: key to Inhibition of Sheath Formation: −: No effect apparent inhibition of stylet sheath; +/−: inconclusive inhibition; +: apparent slight inhibition effect; ++: increased apparent inhibition effect; +++: high inhibition effect; ++++: very high inhibition effect; +++++: complete inhibition of sheath synthesis
Description: The effects of a protease (bromelain and ficin) contained within the previously described artificial diet (liquid ACP diet) were tested on the Bemisia tabaci biotype B whitefly (a Aleyrodidae, an SSFHI) using approximately 100 live B. tabaci. Approximately 100 live B. tabaci were placed into polystyrene Cellstar 35 mm×10 mm dishes (Griener Bio-One, Monroe, N.C.) using the liquid ACP diet “sandwich” described in Example 2, using approximately 200 μL liquid ACP diet with or without a protease using the conditions described in Table 6 below. The MFCs were incubated at a temperature of about 25° C., a relative humidity of about 75%, and a light:dark cycle of approximately 14:10 hours. MFCs were maintained within clear Pyrex® baking dishes with the membrane (liquid ACP diet “sandwich”) side up, and the baking dish covered in a single layer of clear plastic wrap to prevent external contaminant interactions with the membrane surface during incubation. After about 24 hours incubation, the B. tabaci feeding sites were observed using an inverted microscope to see the effects of proteases in diet on the stylet sheaths for B. tabaci.
After performing the experiments using liquid ACP diet containing either bromelain or ficin experiment on B. tabaci, a similar experiment is performed substituting BAPN for the enzyme. […]

D. citri [3] = experiment: Liquid ACP diet sandwich feeding assay (MFC): inhibition of de novo stylet sheath formation; assay type: in vivo, Diaphorina citri; conditions: for Effect on D. citri stylet sheath formation in liquid ACP diet: about 24 h, cellulase approx 1 unit/μl, BAPN 100 mM, EDTA approx 2 mM, proteases per Table 5; for Effect (on ACP stylet sheath formation): D. citri, GRAS small molecule in 175 μL liquid ACP diet at the mM concentration of Table 8, about 24 h
Description: as §1, §2, §3

Row | SMILES | Inhibition of Sheath Formation (D. citri [1]) | Effect (on ACP stylet sheath formation) (D. citri [3]) | also measured
1 | N#CCCN.O=C(O)/C=C/C(=O)O [3-aminopropionitrile fumarate salt] | ‘+++++’ (D. citri) |  | Inhibition of Sheath Formation ([2]; WF (Bemisia tabaci, B biotype), BAPN 50 mM in diet): ‘+++++’ (WF); Effect on B. tabaci stylet sheath formation in liquid ACP diet ([2]; about 24 hours, bromelain or ficin 10 units in 250 μl of diet, BAPN 50 mM): prevents stylet sheath formation; Effect on D. citri stylet sheath formation in liquid ACP diet (D. citri [3]): prohibited the solidification of the ACP SS
2 | O=C1C[C@@H](c2ccc(O)cc2)Oc2cc(O)cc(O)c21 [Naringenin] |  | Malformed sheaths | 
3 | O=C(O)CN(CCN(CC(=O)O)CC(=O)O)CC(=O)O [Ethylenediaminetetraacetic acid (EDTA), Ethylenediaminetetraacetic acid] | ‘+++++’ (D. citri) |  | Effect on D. citri stylet sheath formation in liquid ACP diet (D. citri [3]): can inhibit sheath formation
4 | C[C@@H]1O[C@@H](O[C@H]2[C@H](Oc3cc(O)c4c(c3)O[C@H](c3ccc(O)cc3)CC4=O)O[C@H](CO)[C@@H](O)[C@@H]2O)[C@H](O)[C@H](O)[C@H]1O [Naringin] |  | Malformed sheaths | 
5 | OCc1ccc(O)cc1 [4-hydroxybenzyl alcohol] | ‘−’ (D. citri) |  | 
6 | COc1ccc([C@@H]2CC(=O)c3c(O)cc(O[C@@H]4O[C@H](CO[C@@H]5O[C@@H](C)[C@H](O)[C@@H](O)[C@H]5O)[C@@H](O)[C@H](O)[C@H]4O)cc3O2)cc1O [Hesperidin] |  | No Effect | 
7 | CC1(C)O[C@H]2CC(=O)OC[C@]23[C@H]2CC[C@@](C)([C@@H](O[C@@H]4O[C@H](CO)[C@@H](O)[C@H](O)[C@H]4O)c4ccoc4)[C@@]4(O[C@@H]4C(=O)O)[C@]2(C)C(=O)C[C@@H]13 [Limonin glucoside] |  | Malformed sheaths | 
8 | COc1ccc([C@@H]2CC(=O)c3c(O)cc(O[C@@H]4O[C@H](CO[C@@H]5O[C@@H](C)[C@H](O)[C@@H](O)[C@H]5O)[C@@H](O)[C@H](O)[C@H]4O)cc3O2)cc1 [Didymin] |  | Malformed sheaths | 
9 | O=c1ccc2ccc(O)cc2o1 [7-HO-Coumarin, 7-hydroxy-coumarin] |  | Malformed sheaths | 
10 | O=c1cc(CO)occ1O [Kojic Acid] | ‘++’ (D. citri) |  | 
11 | O=C1C[C@@H](c2ccc(O)c(O)c2)Oc2cc(O)cc(O)c21 [Eriodictyol] |  | Malformed sheaths | 
12 | CC(=O)O[C@H]1CC(=O)OC(C)(C)[C@@H]2CC(=O)[C@]3(C)[C@H](CC[C@@]4(C)[C@H](c5ccoc5)OC(=O)[C@H]5O[C@]543)[C@@]12C [Nomilin] |  |  | Effect (on ACP stylet sheath formation) (D. citri [3]; listed as nomilin): inhibition of flange solidification
13 | CC1(C)O[C@H]2CC(=O)OC[C@]23[C@H]2CC[C@@]4(C)[C@H](c5ccoc5)OC(=O)[C@H]5O[C@]54[C@]2(C)C(=O)C[C@@H]13 [Limonin] |  | Malformed sheaths | 
14 | C[C@@H]1O[C@@H](OC[C@H]2O[C@@H](Oc3cc(O)c4c(c3)O[C@H](c3ccc(O)c(O)c3)CC4=O)[C@H](O)[C@@H](O)[C@@H]2O)[C@H](O)[C@H](O)[C@H]1O [Eriocitrin] |  | Malformed sheaths | Effect (on ACP stylet sheath formation) (D. citri [3]; listed as eriocitrin): malformation of sheaths
15 | O[C@H](CS)[C@H](O)CS (racemic) [Dithiothreitol Solution (DTT), Dithiothreitol] | ‘+++++’ (D. citri) |  | 
16 | [NH4+].[NH4+].[SH-].[SH-].[S]=[Mo]=[S] [Ammonium Tetrathiomolybdate] | ‘+++++’ (D. citri) |  | Effect on D. citri stylet sheath formation in liquid ACP diet (D. citri [3]): potent inhibitor of D. citri sheath formation
17 | COc1ccc([C@@H]2CC(=O)c3c(O)cc(O)cc3O2)cc1O [Hesperetin] |  | Malformed sheaths | 
18 | O=C([O-])CN(CC(=O)[O-])CC(=O)[O-].[Na+].[Na+].[Na+] [Nitrilotriacetic acid trisodium salt] | ‘+++++’ (D. citri) |  | 
